Reference: ChEMBL document CHEMBL2016457, “Discovery of potent and orally bioavailable 17β-hydroxysteroid dehydrogenase type 3 inhibitors” (Bioorg Med Chem, 2012)
Active and inactive are the calls of the source. How the calls were made is not given here.

Experiments:
[1] = biological target: T1, Androgen receptor (Homo sapiens) (UniProt P10275); test: Antagonist activity at human androgen receptor expressed in human HeLa cells assessed as inhibition of DHT-induced response after 40 hrs by luciferase/beta-galactosidase-based reporter gene assay; assay type: functional, cell-based
T1 sequence (whole entry): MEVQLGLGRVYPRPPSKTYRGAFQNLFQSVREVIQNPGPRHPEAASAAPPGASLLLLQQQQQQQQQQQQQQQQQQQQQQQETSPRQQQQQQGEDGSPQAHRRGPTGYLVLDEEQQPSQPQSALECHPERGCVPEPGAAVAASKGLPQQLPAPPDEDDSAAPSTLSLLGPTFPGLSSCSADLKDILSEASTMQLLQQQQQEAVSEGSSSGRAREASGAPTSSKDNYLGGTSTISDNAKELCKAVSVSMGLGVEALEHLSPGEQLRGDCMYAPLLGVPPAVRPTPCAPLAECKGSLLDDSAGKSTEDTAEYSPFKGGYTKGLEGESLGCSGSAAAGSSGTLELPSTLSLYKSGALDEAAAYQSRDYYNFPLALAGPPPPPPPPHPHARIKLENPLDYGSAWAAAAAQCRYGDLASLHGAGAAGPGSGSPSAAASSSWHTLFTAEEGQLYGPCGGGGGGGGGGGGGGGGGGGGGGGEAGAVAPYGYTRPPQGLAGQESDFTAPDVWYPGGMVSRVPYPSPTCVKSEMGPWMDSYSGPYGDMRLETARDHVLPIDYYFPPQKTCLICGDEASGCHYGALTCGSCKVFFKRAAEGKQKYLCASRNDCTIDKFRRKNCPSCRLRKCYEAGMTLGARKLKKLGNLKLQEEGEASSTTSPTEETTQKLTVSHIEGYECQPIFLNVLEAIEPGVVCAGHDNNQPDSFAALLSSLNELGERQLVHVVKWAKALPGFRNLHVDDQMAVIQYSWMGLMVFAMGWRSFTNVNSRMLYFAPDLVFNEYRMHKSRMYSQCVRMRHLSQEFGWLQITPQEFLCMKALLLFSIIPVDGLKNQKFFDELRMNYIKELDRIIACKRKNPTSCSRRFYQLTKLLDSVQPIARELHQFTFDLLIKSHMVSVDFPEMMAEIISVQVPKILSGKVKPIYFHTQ

[2] = biological target: T2, Glucocorticoid receptor (Homo sapiens) (UniProt P04150); test: Agonist activity at human Glucocorticoid receptor expressed in human HeLa cells assessed as DHT-induced response after 40 hrs by luciferase/beta-galactosidase-based reporter gene assay; assay type: functional, cell-based
T2 sequence (whole entry): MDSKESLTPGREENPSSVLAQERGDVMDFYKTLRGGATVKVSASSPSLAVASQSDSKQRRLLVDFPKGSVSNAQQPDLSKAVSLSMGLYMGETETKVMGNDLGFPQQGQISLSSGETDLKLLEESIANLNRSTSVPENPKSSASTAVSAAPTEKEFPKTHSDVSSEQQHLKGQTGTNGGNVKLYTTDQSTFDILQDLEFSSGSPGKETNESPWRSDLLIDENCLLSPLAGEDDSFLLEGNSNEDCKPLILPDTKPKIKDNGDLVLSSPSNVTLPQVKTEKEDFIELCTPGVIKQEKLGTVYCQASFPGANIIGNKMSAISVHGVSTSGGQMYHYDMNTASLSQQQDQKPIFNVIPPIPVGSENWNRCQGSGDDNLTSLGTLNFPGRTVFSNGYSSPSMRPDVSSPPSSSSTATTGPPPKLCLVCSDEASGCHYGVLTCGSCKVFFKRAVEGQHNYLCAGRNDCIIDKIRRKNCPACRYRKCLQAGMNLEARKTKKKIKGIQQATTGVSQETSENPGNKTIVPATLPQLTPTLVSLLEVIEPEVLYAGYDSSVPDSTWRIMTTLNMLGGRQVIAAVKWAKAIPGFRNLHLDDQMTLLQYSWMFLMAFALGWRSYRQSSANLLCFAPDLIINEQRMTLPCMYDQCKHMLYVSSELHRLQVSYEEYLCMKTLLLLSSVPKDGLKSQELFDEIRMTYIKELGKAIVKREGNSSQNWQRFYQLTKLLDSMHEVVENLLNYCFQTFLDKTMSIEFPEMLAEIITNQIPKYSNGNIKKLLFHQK

[3] = biological target: T3, 17-beta-hydroxysteroid dehydrogenase type 1 (Homo sapiens) (UniProt P14061); test: Inhibition of human recombinant 17-beta-HSD1 expressed in human HeLa cells using estrone as substrate preincubated for 30 mins prior substrate addition measured after 120 mins by spectrophotometry; assay type: cell-based
T3 sequence (whole entry): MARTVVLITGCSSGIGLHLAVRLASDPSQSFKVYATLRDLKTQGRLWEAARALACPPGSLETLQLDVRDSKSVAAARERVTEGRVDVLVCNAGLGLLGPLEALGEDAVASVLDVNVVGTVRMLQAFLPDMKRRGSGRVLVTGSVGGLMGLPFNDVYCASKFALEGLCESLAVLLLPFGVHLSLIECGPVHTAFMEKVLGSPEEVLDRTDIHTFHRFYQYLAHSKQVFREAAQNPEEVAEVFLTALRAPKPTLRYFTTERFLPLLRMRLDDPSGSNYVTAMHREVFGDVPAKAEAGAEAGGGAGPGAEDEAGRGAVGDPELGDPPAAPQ

[4] = biological target: T2, Glucocorticoid receptor (Homo sapiens); test: Antagonist activity at human GR receptor expressed in human HeLa cells assessed as inhibition of DHT-induced response after 40 hrs by luciferase/beta-galactosidase-based reporter gene assay; assay type: functional, cell-based
[5] = Solubility of the compound; assay type: physicochemical
[6] = biological target: T4, Estrogen receptor (Homo sapiens) (UniProt P03372); test: Agonist activity at human Estrogen receptor ERalpha expressed in human HeLa cells assessed as DHT-induced response after 40 hrs by luciferase/beta-galactosidase-based reporter gene assay; assay type: functional, cell-based
T4 sequence (whole entry): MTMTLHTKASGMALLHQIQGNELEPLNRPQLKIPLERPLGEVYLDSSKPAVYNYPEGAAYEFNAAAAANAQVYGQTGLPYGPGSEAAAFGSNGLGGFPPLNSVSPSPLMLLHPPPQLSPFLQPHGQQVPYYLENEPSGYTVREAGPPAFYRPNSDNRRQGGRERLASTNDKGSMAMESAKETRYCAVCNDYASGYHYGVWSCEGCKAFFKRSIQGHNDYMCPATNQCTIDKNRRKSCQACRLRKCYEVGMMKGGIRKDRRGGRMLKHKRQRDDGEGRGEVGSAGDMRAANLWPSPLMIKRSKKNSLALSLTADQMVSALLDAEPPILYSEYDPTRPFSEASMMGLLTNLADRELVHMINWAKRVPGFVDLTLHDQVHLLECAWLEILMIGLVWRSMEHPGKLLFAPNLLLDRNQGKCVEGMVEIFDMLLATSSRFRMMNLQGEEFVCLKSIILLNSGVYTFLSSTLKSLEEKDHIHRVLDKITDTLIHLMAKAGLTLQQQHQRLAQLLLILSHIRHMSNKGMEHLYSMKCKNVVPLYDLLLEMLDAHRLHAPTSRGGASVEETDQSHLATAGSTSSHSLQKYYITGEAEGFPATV

[7] = biological target: T5, 17-beta-hydroxysteroid dehydrogenase type 2 (Homo sapiens) (UniProt P37059); test: Inhibition of human recombinant 17-beta-HSD2 expressed in human HeLa cells using estradiol as substrate preincubated for 30 mins prior substrate addition measured after 120 mins by spectrophotometry; assay type: cell-based
T5 sequence (whole entry): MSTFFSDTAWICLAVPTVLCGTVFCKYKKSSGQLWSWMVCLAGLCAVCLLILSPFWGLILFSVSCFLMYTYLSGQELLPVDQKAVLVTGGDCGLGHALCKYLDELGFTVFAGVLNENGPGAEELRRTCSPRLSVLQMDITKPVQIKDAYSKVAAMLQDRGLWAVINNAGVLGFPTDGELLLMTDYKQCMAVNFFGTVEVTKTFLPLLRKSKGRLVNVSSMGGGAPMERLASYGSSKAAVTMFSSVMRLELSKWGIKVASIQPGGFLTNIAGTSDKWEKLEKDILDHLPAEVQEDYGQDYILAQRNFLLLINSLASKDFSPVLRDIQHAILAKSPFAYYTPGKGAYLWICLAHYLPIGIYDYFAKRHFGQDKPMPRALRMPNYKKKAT

[8] = biological target: T1, Androgen receptor (Homo sapiens); test: Agonist activity at human androgen receptor expressed in human HeLa cells assessed as DHT-induced response after 40 hrs by luciferase/beta-galactosidase-based reporter gene assay; assay type: functional, cell-based
[9] = biological target: T4, Estrogen receptor (Homo sapiens); test: Antagonist activity at human ERalpha receptor expressed in human HeLa cells assessed as inhibition of DHT-induced response after 40 hrs by luciferase/beta-galactosidase-based reporter gene assay; assay type: functional, cell-based

Activity [1]: inactive | Activity [2]: inactive | inhibition [3]: inactive | Activity [4]: inactive | solubility [5]: < 1 µg/mL | Activity [6]: inactive | inhibition [7]: inactive | Activity [8]: inactive | Activity [9]: inactive
Compound: COc1ccc(N2C(=O)/C(=C/c3ccc(O)c(Br)c3)OC2=S)cc1
